The structures appear in SMILES notation.

The subject of assay [1] is DU-145 cells. Nature of the assay: Scratch assay (cell migration). The following applies: Homo sapiens, 24 h, read-out: DU-145 cell migration inhibited. The class given is cell-based. As for the experimental part: DU-145 cells were grown in 6-well plates until they reached confluence. A straight-line scratch was then carefully created in the cell layer using a sterile pipette tip. The medium was replaced to remove any detached cells. The cells were treated with varying concentrations of AQQ1 (1, 2.5, and 5 µM) along with negative control for 24 h and the cells were allowed to migrate into the denuded area. The brightfield images were taken under the microscope at 0 h and over 24 h. The extent of wound closure is quantified by measuring the change in the width of the scratch with Fiji Image J wound healing size macro [20].

The subject of assay [2] is DU-145 cells. Nature of the assay: Cell cycle assay (flow cytometry, PI). The format is cell-based, human. The following applies: 24 h, highest concentrations. How it is done:
Cells were subjected to AQQ1 and DOXO treatments as previously described for apoptosis necrosis analysis. For cell cycle analysis, a cell population of 1 × 10^6 was collected, centrifuged, and the supernatant was removed. The resulting cellular pellet was re-suspended in 70% cold ethanol in PBS. Subsequently, the cells underwent a single PBS wash, followed by incubation in PBS containing […] PI (Sigma-Aldrich, St. Louis, MO, USA) and 2 mg/mL DNase-free RNase-A (Affymetrix, Inc., Santa Barbara, CA, USA) for 30 min at room temperature in a light-protected environment. Analysis was performed using the BD FACS Calibur Flow Cytometry System, and the BD CellQuest Pro Software software (version 5.1, Becton Dickinson, USA) was employed to determine cell cycle phase distributions in comparison to the control group.
(In flow cytometry, cells or beads pass a laser one at a time.)

Another assay relates to M14. Nature of the assay: NCI-60 one-dose screen (melanoma). The class given is cell-based, human. To be noted: 10 µM single dose, 48 h.

Take `COc1ccccc1NC1=C(Cl)C(=O)c2nc(C)ccc2C1=O` [AQQ1]: in the assay on DU-145 cells [1] (1 μM), the inhibition at 1 µM turned out to be 13.4%. Further, the inhibition at 2.5 µM in the assay with DU-145 cells [1] (2.5 μM) came out at 23.7%. Also, the inhibition at 5 µM in the assay with DU-145 cells [1] (5 μM) came out at 49.8%. Besides, the “population of cells in the G0/G1 phase” value in the assay with DU-145 cells [2] is on record as “significantly increased the population of cells in the G0/G1 phase”.
As for `COc1cc(NC2=C(Cl)C(=O)c3nc(C)ccc3C2=O)cc(OC)c1` [AQQ5], in the assay with M14, the “GP (growth percentage)” value is given as −95.99%.

The values above are taken from PMC11200585, “Prospects for Prostate Cancer Chemotherapy: Cytotoxic Evaluation and Mechanistic Insights of Quinolinequinones with ADME/PK Profile” (Biomedicines, 2024).
